Data: patent US7910751B2, “Heterocyclidene acetamide derivative” (Mochida Pharmaceutical Co., Ltd., priority 2005, dated 2011)

Biological target: T1, human TRPV1 (Homo sapiens, UniProt Q8NER1)
T1 construct: expressed in transfected cells; host or cells: CHO-K1
Assay: Measurement of capsaicin-induced Ca influx in human TRPV1 transformed CHO cell line using FDSS-6000
Assay type: cell-based
Settings: concentration at which the capsaicin concentration-reaction curve is shifted two times to the right, human TRPV1 transformed CHO cells

T1 sequence (Q8NER1 whole entry): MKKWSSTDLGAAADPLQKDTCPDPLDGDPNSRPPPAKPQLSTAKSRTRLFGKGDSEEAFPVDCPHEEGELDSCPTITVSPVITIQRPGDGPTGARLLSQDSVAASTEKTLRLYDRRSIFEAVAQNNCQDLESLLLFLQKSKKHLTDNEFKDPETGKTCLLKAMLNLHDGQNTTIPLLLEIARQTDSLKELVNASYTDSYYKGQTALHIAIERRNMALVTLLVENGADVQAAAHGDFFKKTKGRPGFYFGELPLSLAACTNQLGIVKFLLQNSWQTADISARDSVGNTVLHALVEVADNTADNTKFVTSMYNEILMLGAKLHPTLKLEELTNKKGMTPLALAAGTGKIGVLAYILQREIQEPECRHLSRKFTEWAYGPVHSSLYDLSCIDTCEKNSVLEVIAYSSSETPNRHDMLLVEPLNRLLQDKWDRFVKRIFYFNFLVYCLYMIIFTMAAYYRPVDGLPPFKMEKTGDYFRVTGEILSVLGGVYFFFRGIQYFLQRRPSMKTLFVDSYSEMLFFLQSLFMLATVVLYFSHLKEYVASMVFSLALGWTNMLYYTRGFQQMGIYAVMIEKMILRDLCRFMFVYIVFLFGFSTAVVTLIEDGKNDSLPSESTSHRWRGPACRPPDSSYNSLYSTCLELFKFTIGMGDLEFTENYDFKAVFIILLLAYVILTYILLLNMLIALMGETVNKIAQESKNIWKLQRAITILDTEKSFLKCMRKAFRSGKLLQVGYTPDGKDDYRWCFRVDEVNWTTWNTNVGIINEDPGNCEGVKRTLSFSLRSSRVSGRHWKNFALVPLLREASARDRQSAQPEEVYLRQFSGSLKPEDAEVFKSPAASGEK

SMILES | A2 VALUE
O=C(/C=C1\CCOc2cc(C(F)(F)F)c(F)cc21)Nc1cccc2c1CC(O)CC2 (centres unmarked) [Example 214, (E)-2-(6-fluoro-7-trifluoromethyl-chroman-4-ylidene)-N-(7-hydroxy-5,6,7,8-tetrahydronaphthalen-1-yl)acetamide] | A (compounds of the present invention having an A2 value of less than 100 nM are represented by A)
O=C(/C=C1\CCOc2cc(C(F)(F)F)c(F)cc21)Nc1cccc2c1CC(O)CN2 (centres unmarked) [Example 215, (E)-2-(6-fluoro-7-trifluoromethyl-chroman-4-ylidene)-N-(3-hydroxy-1,2,3,4-tetrahydroquinolin-5-yl)acetamide] | A (compounds of the present invention having an A2 value of less than 100 nM are represented by A)
O=C(/C=C1\CCOc2cc(C(F)(F)F)ccc21)Nc1ccc2sc(CO)nc2c1 [Example 216, (E)-2-(7-trifluoromethyl-chroman-4-ylidene)-N-(2-hydroxymethyl-1,3-benzothiazolo-5-yl)acetamide] | A (compounds of the present invention having an A2 value of less than 100 nM are represented by A)
O=C(/C=C1\CCCOc2cc(C(F)(F)F)ccc21)Nc1cccc2c1CC(O)CN2 (centres unmarked) [Example 218, (E)-2-(8-trifluoromethyl-3,4-dihydrobenzo[b]oxepin-5(2H)-ylidene)-N-(3-hydroxy-1,2,3,4-tetrahydroquinolin-5-yl)acetamide] | A (compounds of the present invention having an A2 value of less than 100 nM are represented by A)
O=C(/C=C1\CCCOc2cc(C(F)(F)F)ccc21)Nc1cccc2c1CC(O)CN2 (centres unmarked) [Example 219, (E)-2-(8-trifluoromethyl-3,4-dihydrobenzo[b]oxepin-5(2H)-ylidene)-N-(3-hydroxy-1,2,3,4-tetrahydroquinolin-5-yl)acetamide] | A (compounds of the present invention having an A2 value of less than 100 nM are represented by A)
CC1(O)CCc2cccc(NC(=O)/C=C3\CCCOc4cc(C(F)(F)F)ccc43)c2C1 (centres unmarked) [Example 220, (E)-2-(8-trifluoromethyl-3,4-dihydrobenzo[b]oxepin-5(2H)-ylidene)-N-(7-hydroxy-7-methyl-5,6,7,8-tetrahydronaphthalen-1-yl)acetamide] | A (compounds of the present invention having an A2 value of less than 100 nM are represented by A)
Cc1sc2cnccc2c1NC(=O)/C=C1\CCCOc2cc(C(F)(F)F)ccc21 [Example 221, (E)-2-(8-trifluoromethyl-3,4-dihydrobenzo[b]oxepin-5(2H)-ylidene)-N-(2-methylthieno[2,3-c]pyridin-3-yl)acetamide] | A (compounds of the present invention having an A2 value of less than 100 nM are represented by A)
O=C(/C=C1\CCCOc2cc(C(F)(F)F)ccc21)Nc1ncc(CO)cc1Cl [Example 224, (E)-2-(8-trifluoromethyl-3,4-dihydrobenzo[b]oxepin-5(2H)-ylidene)-N-(3-chloro-5-hydroxymethyl-2-pyridyl)acetamide] | B (compounds having an A2 value of 100 nM or more are represented by B)
O=C(/C=C1\CCCOc2cc(C(F)(F)F)ccc21)NCCc1cccc2c1CC(O)CC2 (centres unmarked) [Example 226, (E)-2-(8-trifluoromethyl-3,4-dihydrobenzo[b]oxepin-5(2H)-ylidene)-N-(2-(7-hydroxy-5,6,7,8-tetrahydronaphthalen-1-yl)ethyl)acetamide] | A (compounds of the present invention having an A2 value of less than 100 nM are represented by A)
CC(CNC(=O)/C=C1\CCCOc2cc(C(F)(F)F)ccc21)c1cccc2c1CC(O)CC2 (centres unmarked) [Example 227, (E)-2-(8-trifluoromethyl-3,4-dihydrobenzo[b]oxepin-5(2H)-ylidene)-N-(2-(7-hydroxy-5,6,7,8-tetrahydronaphthalen-1-yl)propyl)acetamide] | A (compounds of the present invention having an A2 value of less than 100 nM are represented by A)
O=C(/C=C1\CCCOc2cc(C(F)(F)F)ccc21)Nc1cccc(N2CCCC2CO)c1 (centres unmarked) [Example 229] | B (compounds having an A2 value of 100 nM or more are represented by B)
